Marks after values point to notes of the source that are not given here.
Assays:
[1] = molecular target: T1, α-tubulin (Bos taurus, UniProt P81947); experiment: Subtilisin digestion of tubulin before or after labeling with Probe 1; type: biochemical, bovine
T1 construct: MAP-rich bovine brain tubulin (99% purity), Hela cell tubulin (90% purity); purchased Cytoskeleton (Denver, Colo.); host or cells: bovine brain
Description: FIGS. 6A-6C provide data for the digestion of tubulin by subtilisin before or after photoaffinity labeling with Probe 1. FIG. 6A diagrams the predicted subtilisin cleavage site and cleavage products for α-tubulin. FIG. 6B provides Coomassie staining (top) and fluorographic (bottom) images of fragments photolabeled with Probe 1 and exposed to subtilisin as follows: Tubulin (5 μg) was incubed without (Lanes 1 and 4) or with 0.2 μg subtilisin for 60 minutes at 30° C. and then photolabeled with 0.25 μM [^3H]-Probe 1 (Lane 2) according to conditions specified in Section 6.1.11. Alternatively, photolabeling was done before subtilisin digestions (Lane 3). In both cases samples were then separated by SDS-PAGE. […] Again, samples were separated by SDS-PAGE.
Before or after incubating with 0.25 μM (0.36 μCi) [^3H]-Probe 1 for 30 minutes at room temperature and irradiating as described in Section 7.1.5, tubulin (5 μg) was digested under native conditions with subtilisin (0.2 μg) for 60 minutes at 30° C. Enzymatic digestions were stopped with 1 mM PMSF. After both digestion and labeling, samples were resolved by SDS-PAGE under conditions that allowed separation of α- and β-tubulin subunits. Gels were then fixed and stained with Coomassie blue from BioRad (Hercules, Calif.) and subjected to fluorography.

[2] = test system: KB cells; experiment: Cell proliferation assay in tissue culture (SRB); type: cell-based; conditions: Homo sapiens, KB, 72 h
Description: Cell proliferation studies were performed according to procedures described by Loganzo et al. (Cancer Res. 2003, 63:1838-1845). Briefly, KB cells were plated in 96-well plates in 100 μL media at densities pre-determined to produce 60-90% confluence at the time of analysis. Compounds, which were serially diluted into media as 2× stocks, were added to cells in duplicate. After 72 hours of incubation, cell survival was assayed by the SRB assay as described (Rabindran et al., C. Cancer Res. 1998, 58:5850-5858). IC50 values (i.e. the concentration of drug needed to inhibit cell growth by 50%) were used to evaluate drug potency.

[3] = molecular target: T2, tubulin in KB-3-1 cell lysates (Homo sapiens, UniProt P07437+P68363); experiment: Probe 1 photolabeling in KB-3-1 cell lysates; type: binding; conditions: 250 μM non-radiolabeled, 2.5 μM [3H]-probe 1, KB-3-1 cell lysates (50 μg)
T2 construct: a cytosolic preparation of KB-3-1 cell lysates (50 μg) or KB-3-1 cells (40,000 cells) were used in the place of purified tubulin; endogenous in cells; host or cells: KB-3-1 cells (cytosolic supernatant at 100,000 x g, or whole cells)
Description: FIG. 1B illustrates the labeling of KB-3-1 cell lysates (50 μg) (lanes 1 and 2) and purified bovine brain (BB) tubulin (5 μg) (lanes 3 and 4) incubated for 30 minutes at room temperature with 2.5 μM [^3H]-probe 1. Samples in lanes 1 and 3 were pre-incubated with 250 μM non-radiolabeled probe 1 prior to incubation with radiolabeled materials. Samples were analyzed as described in FIG. 1A. Lanes marked “M” are molecular weight markers in kDa.
(§1) Alternatively, a cytosolic preparation of KB-3-1 cell lysates (50 μg) or KB-3-1 cells (40,000 cells) were used in the place of purified tubulin above. The supernatant of mechanically disrupted cells centrifuged at 100,000×g was used as a cytosolic preparation. K-3-1 cells were prepared by growing KB-3-1 cells in a 96-well plate and rinsing them with serum free medium. For experiments with whole cells, 250 μM HTI-286 was used as the competitor molecule during pre-incubation at 37° C. for 15 minutes.

[4] = molecular target: T3, bovine brain tubulin (Bos taurus, UniProt P81947+Q6B856); experiment: Competition of [3H]-Probe 1 photolabeling of tubulin; type: binding; conditions: for inhibition of tubulin labeling by non-radiolabeled probe: 100 μM non-radiolabeled; for Probe 1 photolabeling of tubulin (% of no-competitor control): control (no competitor) = 100
T3 construct: MAP-rich bovine brain tubulin (99% purity), Hela cell tubulin (90% purity); purchased Cytoskeleton (Denver, Colo.); host or cells: bovine brain
Description: as §1, with “medium.” for “medium. For experiments with whole cells, 250 μM HTI-286 was used as the competitor molecule during pre-incubation at 37° C. for 15 minutes.”
If whole cells were used, Laemmli sample buffer was then added to lyse the cells.
Low grade SDS (Sigma, catalog No. L5750) was used in the running buffer, when needed, to allow separation of α and β-tubulin subunits. Gels were fixed, stained with Coomassie blue from BioRad (Hercules, Calif.) to ensure equal loading of protein, and sliced. […] Alternatively, gels were incubated with EN^3HANCE according to the manufacturer's instructions (Life Sciences Products, Inc.), washed, and dried prior to exposure of the gel to Biomax MX film from Kodak (Rochester, N.Y.) for fluorography.
After incubation for 30 minutes at 37° C., samples were irradiated with 360 nm UV light for 30 minutes and separated by SDS-PAGE. Gels were exposed to film using fluorographic techniques.
In particular, photolabeling experiments were performed as described in section 7.1.5 above, at both room temperature and at 37° C.

[5] = molecular target: T3, bovine brain tubulin; experiment: Radiolabeled Probe 1 binding by centrifugal gel filtration; conditions: 0.5 μM tubulin, 0.005-5 μM radiolabeled Probe 1, room temperature; read-out: apparent KD, radiolabeled probe technique
Description: Binding of Probe 1 to bovine brain tubulin was also assessed by incubating 0.5 μM tubulin with 0.005-5 μM radiolabeled Probe 1 both in the presence and in the absence of 5 μM non-radiolabeled probe 1 as a competitor. Incubations were performed for 30 minutes at room temperature in PEM buffer. Binding was measured using centrifugal gel filtration on Sephadex G-50 (Microspin G-50) as described (Bai et al., Cancer Res. 1996, 56:4398-4406). Spin columns (Amersham Biosciences, Piscataway, N.J.) were centrifugated for 1 minute at 2000 rpm in a microcentrifuge immediately prior to use, and samples applied in 50 μL total volume, followed by a 2 minute centrifugation at the same speed. The amount of probe 1 bound to tubulin was quantitated by measuring the radioactivity within aliquots collected after centrifugation. The KD value, representing 50% of specific binding, was calculated from the curve generated by subtracting the amount of […].

CN[C@H](C(=O)N[C@H](C(=O)N(C)[C@H](/C=C(\C)C(=O)O)C(C)C)C(C)(C)C)C(C)(C)c1ccc(C(=O)c2ccccc2)cc1 [Probe 1, 4-benzoyl-N,β,β-trimethyl-L-phenylalanyl-N^1-[(1S,2E)-3-carboxy-1-isopropylbut-2-enyl]-N^1,3-dimethyl-L-valinamide]
effect on subtilisin digestion of α-tubulin ([1]; 0.25 μM radiolabeled): partially inhibits the digestion of α-tubulin | effect on subtilisin digestion of α-tubulin ([1]; 100 or 250 μM non-radiolabeled, β-tubulin is completely digested): completely blocks | IC50 [2]: 1.8 nM | inhibition of radiolabeled Probe 1 binding in cell lysates [3]: can inhibit the binding of radiolabled Probe 1 | inhibition of tubulin labeling by non-radiolabeled probe ([4]; tubulin: radiolabeled probe 1 of 2.5:0.25 (10:1)): 93% | inhibition of tubulin labeling by non-radiolabeled probe ([4]; tubulin: radiolabeled probe 1 of 2.5:2.5 (1:1)): 82% | reduction of Probe 1 photolabeling of tubulin ([4]; 37° C.): about 75% | Probe 1 photolabeling of tubulin (% of no-competitor control) ([4]; 37° C., 100 μM competitor): 24^† % | Probe 1 photolabeling of tubulin (% of no-competitor control) ([4]; Room Temp., 2.5 μM tubulin, 0.25 μM radiolabeled Probe 1, 100 μM competitor): 12 ± 7.8% | IC50 ([4]; room temperature, 2.5 μM tubulin, 0.25 μM radiolabeled Probe 1, read-out: IC50 for inhibition of Probe 1 photolabeling of tubulin): 5000 nM | reduction of Probe 1 photolabeling of tubulin ([4]; room temperature, 400-fold molar excess (100 μM) competitor, 2.5 μM tubulin, 0.25 μM radiolabeled Probe 1): approximately 87% | Kd [5]: 350 nM
